What was measured:
OVCAR8 cells = assay: Cellular cisplatin sensitization assay; type: cell-based, human; conditions: OVCAR8, absence of cisplatin, peptide 50 μM or chloroquine 5 μM, 48 h
HEY cells = assay: Cellular cisplatin sensitization assay; type: cell-based, human; conditions: absence of cisplatin, peptide 50 μM or chloroquine 5 μM, 48 h

SMILES: CCN(CC)CCCC(C)Nc1ccnc2cc(Cl)ccc12 (centres unmarked) [chloroquine]
- cell viability (MTT), in words (OVCAR8 cells): significantly reduced cell viability
- cell viability (MTT), in words (HEY cells): significantly reduced cell viability

Source: article PMC8179393 (Chemical Science, 2021)
